Experimental data taken from patent US7166588B2 (priority 2000, dated 2007).
Counter-ions that a name gives are not always drawn.

The molecules below were run against acetylcholinesterase (AChE), human recombinant (Homo sapiens, UniProt P22303) (assay: biochemical). Conditions: pre-incubation of the enzyme with inhibitor, read-out: IC50 (AChE, mE, hr).
acetylcholinesterase (AChE), human recombinant, sequence (P22303 32-614): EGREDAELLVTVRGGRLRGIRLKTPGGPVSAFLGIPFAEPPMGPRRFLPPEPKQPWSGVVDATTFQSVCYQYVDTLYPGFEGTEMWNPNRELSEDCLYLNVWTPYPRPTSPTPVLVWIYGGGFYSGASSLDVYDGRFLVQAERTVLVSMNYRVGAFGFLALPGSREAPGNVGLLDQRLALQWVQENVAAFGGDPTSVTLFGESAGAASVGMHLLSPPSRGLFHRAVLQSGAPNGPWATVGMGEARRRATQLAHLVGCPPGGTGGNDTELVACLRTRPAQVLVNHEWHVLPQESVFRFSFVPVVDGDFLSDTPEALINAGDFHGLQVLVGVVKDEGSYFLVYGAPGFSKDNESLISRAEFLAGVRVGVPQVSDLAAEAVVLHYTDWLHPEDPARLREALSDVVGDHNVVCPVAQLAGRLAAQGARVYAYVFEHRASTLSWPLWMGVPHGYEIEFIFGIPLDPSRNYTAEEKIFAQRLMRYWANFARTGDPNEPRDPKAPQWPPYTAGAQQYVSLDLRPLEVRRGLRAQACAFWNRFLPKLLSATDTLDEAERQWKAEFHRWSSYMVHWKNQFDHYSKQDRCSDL
Work on CNC(=S)N1CCC23C=C[C@@H](O)C[C@H]2Oc2c(OC)ccc(c23)C1 (stereo partly shown) [SPH-1211] yielded an IC50 of 23 µM. COc1ccc2c3c1O[C@@H]1C[C@H](O)C=CC31CCN(CCCN1CC3CC1CN3c1ccc(F)cc1)C2 (stereo partly shown) [SPH-1196] was tested, and the IC50 was 5.2 µM. COc1ccc2c3c1O[C@@H]1CC(O)C=CC31CCN(C)C2C#N (stereo partly shown) [SPH-1291] showed an IC50 of 0.8 µM. Molecule COc1ccc2c3c1O[C@@H]1C[C@H](O)C=CC31CCN(C(=O)NC(C)c1ccccc1)C2 (stereo partly shown) [SPH-1267] has an IC50 of 30 µM. COc1cc(C)c2c3c1O[C@@H]1C[C@H](O)C=CC31CC[N+](C)(Cc1ccc(C(F)(F)F)cc1)C2 (stereo partly shown) [SPH-1253] gave an IC50 of 60 µM. For COc1ccc2c3c1O[C@@H]1C[C@H](O)C=CC31CCN(C(=O)Nc1ccc(Cl)cc1)C2 (stereo partly shown) [SPH-1237], the IC50 was 24 µM. CCN(CC)c1nccc(N2CCC34C=C[C@@H](O)C[C@H]3Oc3c(OC)ccc(c34)C2)n1 (stereo partly shown) [SPH-1245] gave an IC50 of 25 µM. For COc1ccc2c3c1O[C@@H]1CC(O)C=CC31CCN(CC1CC1)C2 (stereo partly shown) [SPH-1289], the IC50 was 0.7 µM. For COc1ccc2c3c1O[C@@H]1CC(O)C=CC31CCN(C)C2C (stereo partly shown) [SPH-1293], the IC50 was 4.2 µM. COc1ccc2c3c1O[C@@H]1C[C@H](O)C=CC31CCN(CCC(=O)NC(C)C)C2 (stereo partly shown) [SPH-1262] was tested, and the IC50 was 54.5 µM. COC(=O)/C=C(\C(=O)OC)N1CCC23C=C[C@@H](O)C[C@H]2Oc2c(OC)ccc(c23)C1 (stereo partly shown) [SPH-1259] was tested, and the IC50 was 140 µM. For COc1ccc2c3c1O[C@@H]1CC(O)C=CC31CCN(C(N)=O)C2 (stereo partly shown) [SPH-1268], the IC50 was 44 µM. With COc1ccc2c3c1O[C@H]1CC(O)C=CC31CCN(CCCN1CCCCC1)C2 (stereo partly shown) [SPH-1333] the IC50 was 9 µM. With COc1ccc2c3c1O[C@@H]1CC(O)C=CC31CCN(C(=O)OCC1c3ccccc3-c3ccccc31)C2 (stereo partly shown) [SPH-1292] the IC50 was 40 µM. In the case of COc1ccc2c3c1O[C@H]1CC(O)C=C[C@@]31CC[N+](C)(Cc1ccc(Br)cc1)C2 (single isomer, unassigned; (-)) [SPH-1184, (−)(4-Bromophenyl)methylgalanthaminium bromide hemihydrate], the IC50 is reported as 0.2 µM. COc1ccc2c3c1O[C@@H]1C[C@H](N)C=CC31CCN(C)C2 (stereo partly drawn) [SPH-1227, [4aS-(4aα,6α,8aR*)]-4a,5,9,10,11,12-Hexahydro-3-methoxy-11-methyl-6H-benzofuro[3a,3,2-ef][2]benzazepine-6-amine] showed an IC50 of 40 µM. COc1ccc2c3c1O[C@@H]1CC(O)C=CC31CCN(CCCN1CCCCC1)C2 (stereo in doubt) [SPH-1371, (4aα,6b, 8aR* )-4a,5,9,10,111,12-Hexahydro-3-methoxy-11-[3-(1-piperidinyl)propyl]-6H-benzofuro[3a,3,2-ef][2]benzazepin-6-ol, Dihydrobromide, Dihydrate] showed an IC50 of 0.36 µM. With COc1ccc2c3c1O[C@@H]1CC(O)C=CC31CCN(C(=O)Oc1ccccc1)C2 (stereo partly shown) [SPH-1296] the IC50 was 46 µM. Work on COc1ccc2c3c1O[C@@H]1C[C@H](O)C=CC31CCN(C(=O)Nc1ccc3ccccc3c1)C2 (stereo partly shown) [SPH-1232] yielded an IC50 of 36 µM. Work on COc1cc2c(cc1OC)C(=O)C(CCCCN1CCC34C=CC(O)C[C@H]3Oc3c(OC)ccc(c34)C1)C2 (stereo partly shown) [SPH-1376] yielded an IC50 of 0.02 µM. In the case of COc1cc(C)c2c3c1OC1CC(O)C=CC31CCN(C)C2C (stereo not shown) [SPH-1320], the IC50 is reported as 83 µM. Molecule COc1ccc2c3c1O[C@H]1CC(O)C=CC31CCN(C(=O)NC(C)C)C2 (stereo partly shown) [SPH-1284] has an IC50 of 8 µM. COc1cc(C)c2c3c1O[C@@H]1CC(O)C=CC31CCN(C)C2C#N (stereo partly shown) [SPH-1317] was tested, and the IC50 was 80 µM. COc1ccc2c3c1O[C@@H]1C[C@H](O)C=CC31CCN(CCC(=O)NC(C)(C)C)C2 (stereo partly shown) [SPH-1249] was tested, and the IC50 was 45 µM. Molecule COc1ccc2c3c1O[C@H]1CC(O)C=C[C@@]31CC[N+](C)(CCCCl)C2 (single isomer, unassigned; (-)) [SPH-1191, (−)(3-Chloropropyl)-galanthaminium Bromide, 1.25 H2O] has an IC50 of 0.35 µM. With COc1ccc2c3c1O[C@@H]1CC(O)C=CC31CCN(CCCO)C2 (stereo partly shown) [SPH-1315] the IC50 was 2.8 µM. COc1ccc2c3c1O[C@@H]1C[C@H](O)C=CC31CCN(CCCO)C2 (stereo partly shown) [SPH-1220] gave an IC50 of 7.2 µM. With COc1ccc2c3c1O[C@@H]1C[C@H](O)C=CC31CCN(CCCN)C2 (stereo partly shown) [SPH-1235] the IC50 was 3.4 µM. COc1ccc2c3c1O[C@@H]1CC(O)C=CC31CCN(C(=O)NC(C)C)C2 (stereo in doubt) [SPH-1214, (6R)-6-Hydroxy-N^11-isopropyl-3-methoxy-5,6,9,10-tetrahydro-4aH-[1]benzofuro[3a,3,2-ef][2]benzazepine-11(12H)carboxamide] gave an IC50 of 4.2 µM. Work on COc1ccc2c3c1O[C@@H]1CC(O)C=CC31CCN(CCCN1CCCCC1)C2 (stereo partly shown) [SPH-1286] yielded an IC50 of 0.3 µM. COc1ccc2c3c1O[C@@H]1CC(O)C=CC31CCN(c1ccnc(OCCCN(C)C)n1)C2 (stereo in doubt) [SPH-1244, (6R)-11-(2-(3-(Dimethylamino)propoxy)-4-pyrimidinyl)-3-methoxy-5,6,9,10,11,12-hexahydro-4aH-[1]benzofuro[3a,3,2-ef][2]benzazepin-6-ol] was tested, and the IC50 was 7.6 µM. COc1ccc2c3c1O[C@@H]1C[C@H](O)C=CC31CCN(C(=O)NC(C)(C)C)C2 (stereo partly shown) [SPH-1270] was tested, and the IC50 was 2.5 µM. COc1ccc2c3c1O[C@@H]1CC(O)C=CC31CCN(/C(=N/C#N)SC)C2 (stereo partly shown) [SPH-1272] showed an IC50 of 6.7 µM. Work on COc1cc(C)c2c3c1O[C@@H]1C[C@H](O)C=CC31CC[N+](C)(Cc1ccccc1)C2 (stereo partly shown) [SPH-1207] yielded an IC50 of 47 µM. COc1ccc2c3c1O[C@H]1CC(O)C=C[C@@]31CCN(C(=O)OC(C)(C)C)C2 (relative stereo) [SPH-1302, (4aa,6β,8aR*)-4a,5,9,10-Tetrahydro-6-hydroxy-3-methoxy-6H-benzofuro[3a,3,2-ef][2]benzazepine-11(12H)-carboxylic acid-1,1-dimethylethyl ester] was tested, and the IC50 was 23 µM. COc1ccc2c3c1O[C@@H]1C[C@H](O)C=CC31CCN(C(=O)NC(C)(C)C)C2 (stereo partly shown) [SPH-1221] showed an IC50 of 4.8 µM. COc1ccc2c3c1O[C@@H]1CC(O)C=CC31CCN(CCCN1CC3CC1CN3c1ccc(F)cc1)C2 (stereo partly shown) [SPH-1312] was tested, and the IC50 was 3 µM. In the case of C=CCNC(=S)N1CCC23C=C[C@@H](O)C[C@H]2Oc2c(OC)ccc(c23)C1 (stereo partly shown) [SPH-1236], the IC50 is reported as 21 µM. With C#CC[N+]1(C)CC[C@@]23C=C[C@@H](O)C[C@@H]2Oc2c(OC)cc(C)c(c23)C1 (mixture of isomers) [SPH-1251] the IC50 was 59 µM. For COc1ccc2c3c1O[C@@H]1C[C@H](O)C=CC31CCN(C(=O)Nc1ccccc1)C2 (stereo partly shown) [SPH-1215], the IC50 was 70 µM. In the case of COc1cc2c(cc1OC)C(=O)C(CCCCN1CCC34C=CC(O)C[C@H]3Oc3c(OC)ccc(c34)C1)C2 (stereo partly shown) [SPH-1335], the IC50 is reported as 0.02 µM. COc1ccc2c3c1O[C@@H]1CC(O)C=CC31CCN(c1ccccc1)C2 (stereo partly shown) [SPH-1280] showed an IC50 of 0.5 µM. COc1ccc2c3c1O[C@@H]1CC(O)C=CC31CCN(CC(=O)N1CC3CC1CN3c1ccccc1)C2 (stereo partly shown) [SPH-1314] gave an IC50 of 8.4 µM. For CNC(=S)N1CCC23C=C[C@H](O)CC2Oc2c(OC)cc(Br)c(c23)C1 (stereo partly drawn) [SPH-1209, (6R)-1-Bromo-6-hydroxy-3-methoxy-N^11-methyl-5,6,9,10-tetrahydro-4aH-[1]benzofuro[3a,3,2-ef][2]benzazepine-11(12H)-thiocarboxylic acid amide], the IC50 was 31 µM. COc1ccc2c3c1O[C@@H]1CC(O)C=CC31CCN(C)C2C#N (stereo partly shown) [SPH-1290] showed an IC50 of 1.2 µM. COc1ccc2c3c1O[C@H]1CC(O)C=CC31CCN(C(=O)NC(C)(C)C)C2 (stereo partly shown) [SPH-1283] showed an IC50 of 93 µM. COc1ccc2c3c1O[C@@H]1C[C@H](O)C=CC31CCN(C(=O)NC(C)C)C2 (stereo partly shown) [SPH-1269] showed an IC50 of 2.6 µM. For COc1cc2c(cc1OC)C(=O)C(CCCCCN1CCC34C=CC(O)C[C@H]3Oc3c(OC)ccc(c34)C1)C2 (stereo partly shown) [SPH-1375], the IC50 was 0.023 µM. Work on COc1cc2c(cc1OC)C(=O)C(CCCCCN1CCC34C=CC(O)C[C@H]3Oc3c(OC)ccc(c34)C1)C2 (stereo partly drawn) [SPH-1359, 2-[5-[(4aS,6R,8aS)-6-Hydroxy-3-methoxy-5,6,9,10,11,12-hexahydro-4aH-benzofuro[3a,3,2-e,f][2]benzazepine-11-yl]pentyl]-5,6-dimethoxyindan-1-one] yielded an IC50 of 0.0052 µM. COc1ccc2c3c1O[C@@H]1CC(O)C=CC31CCN(CC#N)C2 (stereo partly shown) [SPH-1295] was tested, and the IC50 was 15 µM. Work on COc1ccc2c3c1O[C@@H]1C[C@H](O)C=CC31CCN(C=C(C#N)C#N)C2 (stereo partly shown) [SPH-1219] yielded an IC50 of 28.5 µM. For COc1ccc2c3c1O[C@@H]1CC(O)C=CC31CCN(C(=S)Oc1ccccc1)C2 (stereo partly shown) [SPH-1328], the IC50 was 7.2 µM. In the case of COc1ccc2c3c1O[C@@H]1C[C@H](O)C=CC31CCN(c1ncccn1)C2 (stereo partly shown) [SPH-1229], the IC50 is reported as 38 µM. CCN(CC)c1nc(N(CC)CC)nc(N2CCC34C=C[C@@H](O)C[C@H]3Oc3c(OC)ccc(c34)C2)n1 (stereo partly shown) [SPH-1243] was tested, and the IC50 was 40 µM. Molecule COc1ccc2c3c1O[C@@H]1CC(O)C=CC31CCN(c1cccs1)C2 (stereo partly shown) [SPH-1282] has an IC50 of 4 µM. For CNC(=S)N1CCC23C=C[C@@H](O)C[C@H]2Oc2c(OC)ccc(c23)C1 (stereo partly shown) [SPH-1287], the IC50 was 18.5 µM. In the case of COc1cc(C)c2c3c1O[C@@H]1C[C@H](O)C=CC31CCN(CCCN1CCCCC1)C2 (stereo partly shown) [SPH-1201], the IC50 is reported as 46 µM. C#CC[N+]1(C)CCC23C=C[C@@H](O)C[C@H]2Oc2c(OC)cc(C)c(c23)C1 (stereo partly shown) [SPH-1206] gave an IC50 of 78 µM.
